Experimental data published in PMC9612166 (Molecules, 2022).
Where two headings read alike, the source gives them in different places.

Experiments:
human Topo I = biological target: T1, human Topo I (Homo sapiens, UniProt P11387); test: Human Topoisomerase I relaxation high-throughput plate assay (fluorescent DNA stain); assay type: biochemical
T1 construct: gene TOP1
T1 sequence (P11387 2-765): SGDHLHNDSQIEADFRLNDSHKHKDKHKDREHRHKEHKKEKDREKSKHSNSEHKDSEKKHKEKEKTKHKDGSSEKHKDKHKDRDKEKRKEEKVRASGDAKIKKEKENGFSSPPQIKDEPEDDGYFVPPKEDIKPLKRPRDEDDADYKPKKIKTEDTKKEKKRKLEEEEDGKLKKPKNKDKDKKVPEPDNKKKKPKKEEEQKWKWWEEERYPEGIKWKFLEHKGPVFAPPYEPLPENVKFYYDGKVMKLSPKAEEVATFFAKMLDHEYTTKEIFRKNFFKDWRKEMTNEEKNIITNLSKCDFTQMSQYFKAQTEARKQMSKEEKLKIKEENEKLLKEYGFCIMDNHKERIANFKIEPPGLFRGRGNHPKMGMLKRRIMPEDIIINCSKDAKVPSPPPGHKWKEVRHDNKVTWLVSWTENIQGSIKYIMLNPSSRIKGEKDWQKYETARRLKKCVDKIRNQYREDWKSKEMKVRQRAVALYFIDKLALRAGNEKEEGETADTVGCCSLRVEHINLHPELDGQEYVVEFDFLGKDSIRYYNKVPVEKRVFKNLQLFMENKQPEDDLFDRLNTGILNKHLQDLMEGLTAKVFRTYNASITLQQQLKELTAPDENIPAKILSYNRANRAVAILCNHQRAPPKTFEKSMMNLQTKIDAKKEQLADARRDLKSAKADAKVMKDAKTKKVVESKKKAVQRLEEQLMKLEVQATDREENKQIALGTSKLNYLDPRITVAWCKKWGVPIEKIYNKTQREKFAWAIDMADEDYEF

[1] = system: nicked decamer 2B (DNA, duplex, nick between T5 and G6) GCGTT/GTCGC/GCGACAACGC; test: MALDI-ToF MS; settings: covalent; alkylated product m/z 7296.2 in reaction mother liquor
[2] = system: nicked decamer 2B (DNA, duplex, nick between T5 and G6) GCGTT/GTCGC/GCGACAACGC; test: NOESY/TOCSY NMR; settings: 25 mM NaCl, 25 mM K3PO4; D2O, pH 6, 298 K; stacking at the nick, intermolecular NOEs
[3] = system: nicked decamer 2B (DNA, duplex, nick between T5 and G6) GCGTT/GTCGC/GCGACAACGC; test: DOSY NMR diffusion; settings: 25 mM NaCl, 25 mM K3PO4; D2O, pH 6, 298 K; 0.33 mM each; single-point from diffusion coefficients

| IC50 (human Topo I; read-out: SN38) | Compound | IC50 (human Topo I) | binding [1] | binding [2] | Ka [3] |
| --- | --- | --- | --- | --- | --- |
| 7.37 ± 7.1 µM | CCc1c2c(nc3ccc(O)cc13)-c1cc3c(c(=O)n1C2)COC(=O)[C@]3(O)CC [SN38, reference compound] | – | – | – | – |
| – | CCc1c2c(nc3ccc(O)c(CNCCO)c13)-c1cc3c(c(=O)n1C2)COC(=O)[C@]3(O)CC [compound 1, 7-ethyl-9-[N-(2′-hydroxyethyl)amino]methyl-10-hydroxycamptothecin] | 1.73 ± 0.48 µM | yes | yes | 746.0 mM⁻¹ |
